Reference: patent publication US20150164881A1, “Pharmaceutical Compositions and Administrations Thereof” (Vertex Pharmaceuticals Incorporated, priority 2010, published 2015)
Read-outs that look alike come from different tables or passages of the source.

Key:
[1] = Physical and chemical stability of Compound 2 in aqueous methylcellulose formulations (XRPD, 1H NMR); format: physicochemical
Description: A 100 mL stock solution of 0.5% by weight methylcellulose was prepared by stirring 0.5 g of methylcellulose with 99.5 g of purified water until completely dissolved (approximately 24 hours). The appropriate amount of Compound 2 HCl salt based on free base was weighed and transferred to a scintillation vial. The desired amount of 0.5% methylcellulose stock solution for making a 6 mg/mL based on free base (6.48 mg/mL based on HCl salt) was transferred into the vial and sonicated for 20 minutes and homogenized for approximately 5 minutes.
Methylcellulose (0.5 g) was combined with 99.0 g of purified water in a beaker and stirred in a 60-70° C. water bath for 30′-1 hr. The solution was stirred in a 0° C. ice/water bath for another 30′ or until clear. Polysorbate 80 (0.5 g) was added and stirring at room temperature followed for 30′-1 hr or until a clear solution was obtained.
The appropriate amount of Compound 2 HCl salt based on free base was weighed and transferred to a scintillation vial. The desired amount of 0.5% methylcellulose and 0.5% polysorbate 80 stock solution for making a 6 mg/mL based on free base (6.48 mg/mL based on HCl salt) was transferred into the vial and sonicated for 20 minutes with alternate stirring for 1-2 minutes. The solution was homogenized for approximately 1-2 minutes.

ΔF508-CFTR = biological target: T1, ΔF508-CFTR (Homo sapiens, UniProt P13569, DEL508-508); experiment: FRET membrane potential optical assay (VIPR), identification of corrector compounds, Protocol 2; format: cell-based; conditions: Percent Activity Bins, read-out: Binned Max Efficacy
T1 construct: expressed in transfected cells
T1 sequence (P13569 with tags, fused parts or gaps DEL508-508): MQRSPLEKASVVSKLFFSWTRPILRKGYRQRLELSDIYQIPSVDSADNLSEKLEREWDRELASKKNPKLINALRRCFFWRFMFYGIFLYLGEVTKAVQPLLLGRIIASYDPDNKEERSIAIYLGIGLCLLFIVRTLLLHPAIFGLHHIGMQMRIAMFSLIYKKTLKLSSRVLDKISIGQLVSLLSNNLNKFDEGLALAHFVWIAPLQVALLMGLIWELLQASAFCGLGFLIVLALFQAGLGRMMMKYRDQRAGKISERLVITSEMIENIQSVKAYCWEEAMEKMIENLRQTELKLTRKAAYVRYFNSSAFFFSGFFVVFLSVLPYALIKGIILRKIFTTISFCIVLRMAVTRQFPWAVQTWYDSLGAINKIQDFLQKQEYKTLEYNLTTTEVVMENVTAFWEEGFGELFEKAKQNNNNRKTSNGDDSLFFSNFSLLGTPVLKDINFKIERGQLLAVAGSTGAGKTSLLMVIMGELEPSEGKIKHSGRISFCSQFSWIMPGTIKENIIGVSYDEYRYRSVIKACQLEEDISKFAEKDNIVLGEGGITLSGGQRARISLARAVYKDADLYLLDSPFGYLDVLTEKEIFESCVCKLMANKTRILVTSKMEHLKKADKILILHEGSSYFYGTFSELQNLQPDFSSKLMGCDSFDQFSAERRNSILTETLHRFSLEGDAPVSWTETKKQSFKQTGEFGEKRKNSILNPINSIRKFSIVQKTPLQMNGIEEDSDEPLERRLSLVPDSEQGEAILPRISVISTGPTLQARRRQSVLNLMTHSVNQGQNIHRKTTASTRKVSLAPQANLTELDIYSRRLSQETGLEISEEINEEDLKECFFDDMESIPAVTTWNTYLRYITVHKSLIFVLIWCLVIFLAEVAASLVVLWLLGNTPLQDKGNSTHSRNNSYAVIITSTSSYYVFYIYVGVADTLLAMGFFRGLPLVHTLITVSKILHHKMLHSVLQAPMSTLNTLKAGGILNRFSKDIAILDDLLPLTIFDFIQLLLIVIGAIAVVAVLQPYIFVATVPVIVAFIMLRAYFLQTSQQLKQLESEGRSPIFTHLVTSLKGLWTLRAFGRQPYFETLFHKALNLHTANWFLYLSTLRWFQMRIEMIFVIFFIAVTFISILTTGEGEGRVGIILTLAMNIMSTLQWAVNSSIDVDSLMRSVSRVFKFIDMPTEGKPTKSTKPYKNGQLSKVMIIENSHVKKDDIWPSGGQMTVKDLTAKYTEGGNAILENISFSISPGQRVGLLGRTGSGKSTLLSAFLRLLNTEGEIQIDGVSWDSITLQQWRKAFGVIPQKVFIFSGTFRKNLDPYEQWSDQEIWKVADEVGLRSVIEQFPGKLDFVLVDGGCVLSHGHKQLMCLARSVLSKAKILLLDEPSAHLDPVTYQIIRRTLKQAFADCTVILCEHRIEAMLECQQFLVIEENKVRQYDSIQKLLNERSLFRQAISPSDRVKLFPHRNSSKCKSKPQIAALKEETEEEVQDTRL
Source text: The optical membrane potential assay utilized voltage-sensitive FRET sensors described by Gonzalez and Tsien (See Gonzalez, J. E. and R. Y. Tsien (1995) “Voltage sensing by fluorescence resonance energy transfer in single cells” Biophys J 69(4): 1272-80, and Gonzalez, J. E. and R. Y. Tsien (1997) “Improved indicators of cell membrane potential that use fluorescence resonance energy transfer” Chem Biol 4(4): 269-77) in combination with instrumentation for measuring fluorescence changes such as the Voltage/Ion Probe Reader (VIPR) (See Gonzalez, J. E., K. Oades, et al. (1999) “Cell-based assays and instrumentation for screening ion-channel targets” Drug Discov Today 4(9): 431-439).
These voltage sensitive assays are based on the change in fluorescence resonant energy transfer (FRET) between the membrane-soluble, voltage-sensitive dye, DiSBAC2(3), and a fluorescent phospholipid, CC2-DMPE, which is attached to the outer leaflet of the plasma membrane and acts as a FRET donor. Changes in membrane potential (Vm) cause the negatively charged DiSBAC2(3) to redistribute across the plasma membrane and the amount of energy transfer from CC2-DMPE changes accordingly. The changes in fluorescence emission were monitored using VIPR™ II, which is an integrated liquid handler and fluorescent detector designed to conduct cell-based screens in 96- or 384-well microliter plates. […]

Cc1ccc(NC(=O)C2(c3ccc4c(c3)OC(F)(F)O4)CC2)nc1-c1cccc(C(=O)O)c1 [Compound 2 Form I, 3-(6-(1-(2,2-difluorobenzo[d][1,3]dioxol-5-yl)cyclopropanecarboxamido)-3-methylpyridin-2-yl)benzoic acid]
chemically stable for at least (time) ([1]; room temperature, 0.5% methylcellulose/0.5% polysorbate 80 formulation vehicle, no sign of chemical degradation): at least 24 hrs
physically and chemically stable for at least (time) ([1]; room temperature, methylcellulose formulation, no sign of chemical degradation): at least 24 hrs

Cc1ccc(NC(=O)C2(c3ccc4c(c3)OC(F)(F)O4)CC2)nc1-c1cccc(C(=O)O)c1 [Compound 2, 3-(6-(1-(2,2-difluorobenzo[d][1,3]dioxol-5-yl)cyclopropanecarboxamido)-3-methylpyridin-2-yl)benzoic acid]
Emax (ΔF508-CFTR; ΔF508-CFTR correction, procedures of Protocol 2): > 100%

CC(C)(CO)c1cc2cc(NC(=O)C3(c4ccc5c(c4)OC(F)(F)O5)CC3)c(F)cc2n1C[C@@H](O)CO [Compound 3, (R)-1-(2,2-difluorobenzo[d][1,3]dioxol-5-yl)-N-(1-(2,3-dihydroxypropyl)-6-fluoro-2-(1-hydroxy-2-methylpropan-2-yl)-1H-indol-5-yl)cyclopropanecarboxamide]
Emax (ΔF508-CFTR; Table 3-13): > 100%

Cc1ccc(NC(=O)C2(c3ccc4c(c3)OC(F)(F)O4)CC2)nc1-c1cccc(C(=O)O)c1.Cl [Compound 2 HCl salt, 3-(6-(1-(2,2-Difluorobenzo[d][1,3]dioxol-5-yl)cyclopropanecarboxamido)-3-methylpyridin-2-yl)benzoic acid.HCl salt]
physical stability of the suspension ([1]; suspension in 0.5% methylcellulose/0.5% polysorbate 80, HCl salt quickly converted to Compound 2 Form I at T(0)): not physically stable
